Reference: patent US10765114B2, “4-amino-6-(pyridyl and 2-substitutedphenyl)-picolinates and 6-amino-2-(pyridyl and 2-substitutedphenyl)-pyrimidine-4-carboxylates and their use as herbicides” (Dow AgroSciences LLC, priority 2013, dated 2020)

Experiments:
Assay in all cases: Pre-Emergent Test I
Type in all cases: in vivo
Details in all cases: preemergence
[1] = tested on: SETFA: giant foxtail (Setaria faberi)
Experimental: (§1) Pre-Emergent Test I Seeds of test species were planted into round plastic pots (5-inch diameter) containing sandy loam soil. After planting, all pots were sub-irrigated 16 h prior to compound application. Compounds were dissolved in a 97:3 v/v mixture of acetone and DMSO and diluted to the appropriate concentration in a final application solution containing water, acetone, isopropanol, DMSO and Agri-dex (crop oil concentrate) in a 59:23:15:1.0:1.5 v/v ratio and 0.02% w/v (weight/volume) of Triton X-155 to obtain the spray solution containing the highest application rate. Additional application rates were obtained by serial dilution of the high rate solution with the above application solution Formulated compound (2.7 mL) was pipetted evenly over the soil surface followed by incorporation with water (15 mL). Following treatment, pots were returned to the greenhouse for the duration of the experiment. The greenhouse was programmed for an approximate 15 h photoperiod which was maintained at about 23-29° C. during the day and 22-28° C. during the night. Nutrients and water were added on a regular basis through surface irrigation and supplemental lighting was provided with overhead metal halide 1000-Watt lamps as necessary. Herbicidal effect ratings were obtained 14 days after treatment. All evaluations were made relative to appropriate controls on a scale of 0 to 100 where 0 represents no herbicidal effect and 100 represents plant death or lack of emergence from the soil and presented in Table A. Some of the compounds tested, application rates employed, plant species tested, and results are given in Table 4.

[2] = tested on: IPOSS (IPOHE: ivyleaf morningglory (Ipomoea hederecea))
Experimental: as §1

[3] = tested on: AMARE: redroot pigwseed (Amaranthus retroflexus)
Experimental: as §1

[4] = tested on: HELAN: sunflower (Helianthus annuus)
Experimental: as §1

[5] = tested on: AVEFA: wild oats (Avena fatua)
Experimental: as §1

[6] = tested on: ECHSS (ECHCG: barnyardgrass (Echinochloa crus-galli))
Experimental: as §1

Row | SMILES | Visual Growth Reduction (%) 14 Days After Application, SETFA ([1]; 4 kg ai/ha) | Visual Growth Reduction (%) 14 Days After Application, IPOSS ([2]; 4 kg ai/ha) | Visual Growth Reduction (%) 14 Days After Application, AMARE ([3]; 4 kg ai/ha) | Visual Growth Reduction (%) 14 Days After Application, HELAN ([4]; 4 kg ai/ha) | Visual Growth Reduction (%) 14 Days After Application, AVEFA ([5]; 4 kg ai/ha) | Visual Growth Reduction (%) 14 Days After Application, ECHSS ([6]; 4 kg ai/ha) | Visual Growth Reduction (%) 14 Days After Application, SETFA ([1]; 3.8 kg ai/ha) | Visual Growth Reduction (%) 14 Days After Application, IPOSS ([2]; 3.8 kg ai/ha) | Visual Growth Reduction (%) 14 Days After Application, AMARE ([3]; 3.8 kg ai/ha) | Visual Growth Reduction (%) 14 Days After Application, HELAN ([4]; 3.8 kg ai/ha) | Visual Growth Reduction (%) 14 Days After Application, AVEFA ([5]; 3.8 kg ai/ha) | Visual Growth Reduction (%) 14 Days After Application, ECHSS ([6]; 3.8 kg ai/ha)
1 | COC(=O)c1nc(-c2ccc(C(F)(F)F)nc2)cc(N)c1Cl [Compound 4] | F (30-44) | G (0-29) | D (60-74) | G (0-29) | G (0-29) | F (30-44) | – | – | – | – | – | –
2 | COC(=O)c1nc(-c2ccc(Cl)nc2F)cc(N)c1Cl [Compound 17, methyl 4-amino-5,6′-dichloro-2′-fluoro-[2,3′-bipyridine]-6-carboxylate] | – | – | – | – | – | – | G (0-29) | A (95-100) | A (95-100) | A (95-100) | G (0-29) | F (30-44)
